Key:
Assay in all cases: selective drug sensitivity score (sDSS, relative to normal bone marrow) (sDSS (score)); higher = more potent and effective on the cell line relative to normal bone marrow cells
Settings in all cases: 72 h
380 = test system: 380
697 = test system: 697
ALL-PO = test system: ALL-PO
ALL-SIL = test system: ALL-SIL
CCRF-CEM = test system: CCRF-CEM
COG-LL-317 = test system: COG-LL-317
COG-LL-332h = test system: COG-LL-332h
COG-LL-394h = test system: COG-LL-394h
COG-LL-402h = test system: COG-LL-402h
DND-41 = test system: DND-41
JURKAT = test system: JURKAT
KASUMI-10 = test system: KASUMI-10
KASUMI-2 = test system: KASUMI-2
LC4-1 = test system: LC4-1
MHH-CALL-3 = test system: MHH-CALL-3
NALM-16 = test system: NALM-16
NALM-6 = test system: NALM-6
P12-ICHIKAWA = test system: P12-ICHIKAWA
RCH-ACV = test system: RCH-ACV
RPMI-8402 = test system: RPMI-8402
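Also: ALL cell lines in 384-well plates, five doses spanning 10,000-fold, each plate scaled between vehicle and 100 µmol/L benzalkonium chloride controls, sDSS an adapted area-under-curve metric.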

SMILES	selective drug sensitivity score 380	selective drug sensitivity score 697	selective drug sensitivity score (ALL-PO)	selective drug sensitivity score (ALL-SIL)	selective drug sensitivity score (CCRF-CEM)	selective drug sensitivity score (COG-LL-317)	selective drug sensitivity score (COG-LL-332h)	selective drug sensitivity score (COG-LL-394h)	selective drug sensitivity score (COG-LL-402h)	selective drug sensitivity score (DND-41)	selective drug sensitivity score (JURKAT)	selective drug sensitivity score (KASUMI-10)	selective drug sensitivity score (KASUMI-2)	selective drug sensitivity score (LC4-1)	selective drug sensitivity score (MHH-CALL-3)	selective drug sensitivity score (NALM-16)	selective drug sensitivity score (NALM-6)	selective drug sensitivity score (P12-ICHIKAWA)	selective drug sensitivity score (RCH-ACV)	selective drug sensitivity score (RPMI-8402)
NC1(c2ccc(-c3nc4ccn5c(=O)[nH]nc5c4cc3-c3ccccc3)cc2)CCC1 [MK-2206] (top concentration 1000 nM)	4.76	3.76	5.46	2.96	6.36	3.56	2.86	-1.64	2.76	-1.64	-0.24	-0.44	6.46	0.06	3.86	2.46	2.76	1.66	13.2	1.96
O=C(Nc1cccc(NC(=O)c2cccc(O)c2O)c1)c1cccc(O)c1O [MST-312] (top concentration 10000 nM)	6	-1.2	5.6	9.6	7.1	18.2	13.1	1.1	8.6	7.2	12.5	1	-1.6	8.1	-4	2.8	9.5	6.6	0.7	5.9
CC(=O)O[C@]1(C(C)=O)CC[C@H]2[C@@H]3C=C(C)C4=CC(=O)CC[C@]4(C)[C@H]3CC[C@@]21C [Megestrol_acetate] (top concentration 10000 nM)	7.02	2.52	17.9	-0.48	-0.28	-0.58	-0.58	1.62	-0.38	16.8	1.02	-0.58	-0.58	-0.38	4.22	-0.58	1.72	1.82	4.32	0.52
CO[C@@H]1[C@H](N(C)C(=O)c2ccccc2)C[C@H]2O[C@]1(C)n1c3ccccc3c3c4c(c5c6ccccc6n2c5c31)C(=O)NC4 [Midostaurin] (top concentration 10000 nM)	10.1	14	14.8	10.8	7.06	8.96	6.26	-3.84	6.86	2.46	-1.34	13.4	-1.14	10.6	-0.64	-0.64	7.56	9.76	16.2	3.66
CCCCCCCCCCCCCCCCOP(=O)([O-])OCC[N+](C)(C)C [Miltefosine] (top concentration 100000 nM)	-1.54	1.46	2.26	3.36	-0.04	1.06	0.76	-1.54	0.46	2.66	-1.14	-1.14	1.76	7.46	-2.94	-0.34	1.66	6.56	3.16	1.46
Nc1ccccc1NC(=O)c1ccc(CNc2nccc(-c3cccnc3)n2)cc1 [Mocetinostat] (top concentration 10000 nM)	15.5	8.84	7.24	9.14	5.54	5.64	7.04	2.74	8.84	7.44	6.74	6.74	6.74	9.14	12.4	-0.46	2.94	6.24	9.54	6.34
CCNC(=O)C[C@@H]1N=C(c2ccc(Cl)cc2)c2cc(OC)ccc2-n2c(C)nnc21 [Molibresib] (top concentration 10000 nM)	-5.5	7.4	3.6	-3.3	0.8	3.2	-2.4	-2.1	5.3	-0.9	-0.6	5.3	-2.7	3.7	16.7	1.6	3.2	3	7.7	1.4
Nc1ncnc2c1c(-c1cccc(OCc3ccccc3)c1)cn2[C@H]1C[C@@H](CN2CCC2)C1 [NVP-AEW541] (top concentration 10000 nM)	4.48	-2.72	3.98	4.58	-2.42	-2.32	-1.52	2.48	-0.72	-1.12	-4.72	3.58	-3.62	-0.92	-7.62	-1.42	-4.02	-2.72	1.18	-1.32
CN[C@@H](C)C(=O)N[C@H](C(=O)N1CCC[C@H]1c1nc(C(=O)c2ccc(F)cc2)cs1)C1CCCCC1 [NVP-LCL161] (top concentration 25000 nM)	-5.02	-4.92	0.38	0.08	1.18	-2.02	2.38	6.58	-5.42	-2.72	-3.82	-3.52	2.88	-5.42	-3.22	-5.82	-5.82	-4.32	-0.52	-2.42
CC(=O)c1cc2c(o1)C(=O)c1ccccc1C2=O [Napabucasin] (top concentration 20000 nM)	-2.08	-0.88	0.92	2.22	-1.08	-0.18	2.32	-9.68	-3.48	-0.18	0.52	0.92	-3.38	-0.38	-3.28	-11.8	-1.48	-1.28	-1.38	-6.08
CC1(C)CCC(c2ccc(Cl)cc2)=C(CN2CCN(c3ccc(C(=O)NS(=O)(=O)c4ccc(N[C@H](CCN5CCOCC5)CSc5ccccc5)c(S(=O)(=O)C(F)(F)F)c4)cc3)CC2)C1 [Navitoclax] (top concentration 10000 nM)	26.1	13	23.6	20	17.4	20.5	8.42	19.2	23.4	15.1	9.02	26.4	24.8	22.2	29	19.2	11.7	17.6	3.32	7.42
CC(=O)c1c(C)c2cnc(Nc3ccc(N4CCNCC4)cn3)nc2n(C2CCCC2)c1=O [Palbociclib] (top concentration 10000 nM)	-0.12	14.3	4.08	-2.12	4.38	0.98	3.68	-5.62	8.78	2.48	1.58	0.88	0.88	4.38	5.38	1.98	3.68	4.78	16.1	5.98
COc1ccc(COc2cc3oc(=O)c4cc(C(C)O)ccc4c3cc2OC)cc1 (stereo not given) [Palomid-529] (top concentration 10000 nM)	5.86	0.06	2.86	-0.24	0.86	0.06	0.46	-0.24	0.26	-0.24	5.16	-0.24	-0.24	12.6	-0.24	-0.24	-0.24	-0.14	-0.14	2.86
FC(F)(F)c1ccc(CNc2ccc(Cc3c[nH]c4ncc(Cl)cc34)cn2)cn1 [Pexidartinib] (top concentration 10000 nM)	-2.22	3.18	6.68	-0.52	-0.72	-0.52	-2.22	-1.32	-2.22	-2.12	1.48	8.78	-2.22	1.98	-2.22	-1.22	0.18	0.18	1.58	0.58
CO[C@H](C(=O)[C@@H](O)[C@@H](C)O)[C@@H]1Cc2cc3cc(O[C@H]4C[C@@H](O[C@H]5C[C@@H](O)[C@H](O)[C@@H](C)O5)[C@@H](O)[C@@H](C)O4)c(C)c(O)c3c(O)c2C(=O)[C@H]1O[C@H]1C[C@@H](O[C@H]2C[C@@H](O[C@H]3C[C@](C)(O)[C@H](O)[C@@H](C)O3)[C@H](O)[C@@H](C)O2)[C@H](O)[C@@H](C)O1 [Plicamycin] (top concentration 10000 nM)	7.14	-17.5	-15.9	-1.46	-11.3	-1.96	-6.26	0.04	2.34	0.44	-11.2	-2.36	-17.2	-16.7	5.34	2.74	7.34	-13.8	-17.3	-5.86
Cn1cc(CNCC2CCN(c3ncc(C(=O)NO)cn3)CC2)c2ccccc21 [Quisinostat] (top concentration 1000 nM)	6.68	8.68	5.98	5.68	3.98	7.18	1.48	6.78	17.6	2.98	1.78	7.38	12.4	7.38	17	-1.32	1.78	3.78	14.2	5.58
CC(C)(C)Cn1c(N)nc2ccc(-c3[nH]c(C(C)(C)C)nc3-c3ccc(F)cc3)nc21 [Ralimetinib] (top concentration 10000 nM)	-0.84	5.66	8.56	3.36	2.26	0.96	2.56	4.16	2.26	5.36	1.76	0.86	1.56	4.76	-0.84	-0.84	-0.24	1.86	11.5	4.26

From the supplement of paper PMC8967900
